How the values were obtained:
[1] = system: human primary macrophages; experiment: Cell viability assessment (CellTiter-Glo) in the macrophage assay plates; type: cell-based; design: concentration or dose not given beside the values; conditions: CellTiter-Glo luminescent assay
Experimental: 2×10^5 PBMCs at a total volume of 200 μL/well were plated into a 96-well plate and incubated for 4 hrs at 37° C. in a CO2 incubator to allow the monocytes to settle, leaving the lymphocytes in suspension. Following incubation, 100 μL were aspirated out of each well to ensure removal of the lymphocyte population. The monocytes were differentiated to macrophages by addition of 200 ng/mL of recombinant human GM-CSF (4 mg/mL stock) and incubated at 37° C./5% CO2 for 6 days. The medium was changed every two days by removing half the volume of medium in the well and re-supplementing with fresh RPMI complete medium and recombinant human GM-CSF. Following differentiation, the cells were treated in duplicates with a compound according to the invention in a total volume of 50 μL, maintaining a final DMSO percentile of 0.5%. The plate was transferred to an incubator maintained at 37° C./5% CO2 for 2 hours. The cells were stimulated with 100 ng/mL of LPS (4×) (1 mg/mL stock) in a total volume of 50 μL. The plate was transferred to an incubator maintained at 37° C./5% CO2 for 16 hours. 100 μl/well volume of CellTiter-Glo® luminescent reagent was added to the assay plates and incubated at room temperature for 30 mins on a plate shaker. Following incubation, the luminescent signal of each well was determined using a microplate reader (Perkin Elmer ENVISION 2104). Cytotoxicity of the test compounds was determined utilizing the following formula: % Cytotoxicity=100−(100*(Average Test Compound Counts−Average Negative Control Counts)/(Average Positive Control Counts−Average Negative Control Counts)) All of the “Counts” stated in this formula are derived from “luminescent signal” determined as described for the cytokine viability assessment.

IL-1β = experiment: In vitro inhibition of IL-1β in human primary macrophages challenged with LPS (ELISA); type: cell-based; conditions: Primary macrophage, 2 hours compound pre-treatment, 100 ng/mL LPS, 16 hours, read-out: IC50 (IL-Iβ inhibition)
Experimental: Example 12—In Vitro Inhibition of IL-1β in Human Primary Macrophages Challenged with LPS
5 mL of RPMI media without serum (1:1) was added to a sample of 5 mL of human whole blood in EDTA or sodium citrate and mixed well by inversion. 3 mL of Histopaque-1077 was added to a 15 mL conical centrifuge tube and brought to room temperature. Using a transfer pipette, 10 mL of the blood-RPMI mixture was carefully layered onto the Histopaque-1077 and was centrifuged at 400×g for exactly 30 minutes at room temperature.
After centrifugation, a pasteur pipette was used to aspirate the upper layer to within 0.5 cm of the opaque interface containing the mononuclear cells. The upper layer was discarded. With a Pasteur pipette, the opaque interface was carefully transferred to a clean conical centrifuge tube. 5 mL RPMI was added to the tube and mixed by inversion, followed by centrifugation at 250×g for exactly 10 minutes. The supernatant was aspirated and discarded.
The leukocyte pellet was re-suspended with 5 mL RPMI and mixed gently with a Pasteur pipette, followed by centrifugation at 250×g for exactly 10 minutes. The pellet was washed 3× with PBS and re-suspended in RPMI medium.
2×10^5 PBMCs at a total volume of 200 μL/well were plated into a 96-well plate and incubated for 4 hrs at 37° C. in a CO2 incubator to allow the monocytes to settle, leaving the lymphocytes in suspension. Following incubation, 100 μL were aspirated out of each well to ensure removal of the lymphocyte population.
The monocytes were differentiated to macrophages by addition of 200 ng/mL of recombinant human GM-CSF (4 mg/mL stock) and incubated at 37° C./5% CO2 for 6 days. The medium was changed every two days by removing half the volume of medium in the well and re-supplementing with fresh RPMI complete medium and recombinant human GM-CSF.
Following differentiation, the cells were treated in duplicates with a compound according to the invention in a total volume of 50 μL, maintaining a final DMSO percentile of 0.5%. The plate was transferred to an incubator maintained at 37° C./5% CO2 for 2 hours. The cells were stimulated with 100 ng/mL of LPS (4×) (1 mg/mL stock) in a total volume of 50 μL.
The plate was transferred to an incubator maintained at 37° C./5% CO2 for 16 hours.
• 1. Each well from a pre-coated ELISA plate was aspirated and washed with wash buffer (0.05% Tween 20 in PBS; pH 7.2-7.4) by filling each well with wash buffer (300 μL). The process was repeated two times for a total of three washes. The liquid was removed completely at each step. After the last wash, any remaining wash buffer was removed. • 2. Plates were blocked by adding 300 μL of block buffer (1% BSA in PBS) to each well and incubated at room temperature for 1 hour. • 3. The aspiration/wash as in step 1 was repeated. • 4. 100 μL of sample or standard prepared in reagent diluent (0.1% BSA, 0.05% Tween 20 in PBS pH7.2-7.4) was added. The wells were covered with an adhesive strip and incubated for 2 hours at room temperature. • 5. The aspiration/wash as in step 1 was repeated. • 6. 100 μL of detection antibody, diluted in reagent diluent, was added to each well. The wells were covered with a new adhesive strip and incubated for 2 hours at room temperature. • 7. The aspiration/wash as in step 1 was repeated. • 8. 100 μL of the working dilution (1:200 from the stock) and streptavidin-HRP was added to each well. The plate was covered and incubated for 20 minutes at room temperature. • 9. 100 μL of substrate solution (1:1 mixture of H2O2 and tetramethylbenzidine) was added to each well and incubated for 20 minutes at room temperature. • 10.50 μL of stop solution (2N H2SO4) was added to each well. The plate was tapped gently to ensure thorough mixing. • 11. The optical density of each well was determined immediately using a microplate reader (Spectramax Plus) set to 450 nm. Cytokine Viability Assessment […]

[2] = system: Non-Alcoholic Steatohepatitis (NASH) in male C57BL/6 mice; experiment: Treatment of non-alcoholic steatohepatitis (NASH) in male C57BL/6 mice (streptozotocin + high-fat diet); type: in vivo; conditions: for hepatomegaly and liver to body weight ratio: 28 days of treatment, FIG. 3
Experimental: Example 15: Effect of Compound 5 and 7 in the Treatment of Non-Alcoholic Steatohepatitis (NASH) in Male C57BL/6 Mice
Timed pregnant mice (n=30) were selected for the study. The delivered pups were subcutaneously injected on the post-natal day 2 (PND-2) with 200 μg of Streptozotocin and were allowed to remain with the mother until they reached the weanling age. After weanling, the male pups were selected and fed with 60% kcal fat diet (Research Diet-D12492) for the next 2 weeks. All the animals were observed twice daily for clinical signs.
Mice were dosed with vehicle, test compounds and reference compound (elafibranor) twice daily morning (9.00 AM) and evening before the start of dark cycle (6:00 PM) from day 0 to 28.
Animal body weight measurements were made daily for the complete duration of the experiment.
Animals were dosed for 28 days (from week 6 to 10) with the test and reference compounds.
Blood glucose was estimated before the treatment start and on the termination day 28. Serum ALT and AST levels were measured from the plasma before the treatment start and on day 28.
Histopathology analysis including H&E staining, Masson's trichrome staining and Oil-Red-O (ORO) staining was performed for the liver tissues.
All the H&E stained tissue sections were examined by light microscopy. As per the below grading system (Kleiner et al., 2005) in 200× objective lens, NAFLD scoring was done for steatosis, lobular inflammation and hepatic ballooning.
All the Masson's trichrome stained tissue sections were examined by light microscopy in 100× objective lens. Randomly selected five fields (approx 684.85 μm×917.11 m per field) from each liver were subjected to collagen proportion area measurement by using Image Pro Premier 9.1 software. The percentage of collagen proportion area was calculated by dividing collagen tissue area by total tissue area.
All the Oil-Red-O stained tissue sections were examined by light microscopy in 100× objective lens. Randomly selected five fields (approximately 688.33 μm×922.45 μm per field) from each liver were subjected to measure stained area by using Image Pro Premier 9.1 software. The percentage of stained area was calculated by dividing lipid stained tissue area by total tissue area.

Bleomycin-induced IPF = experiment: Treatment of bleomycin-induced IPF in mice; type: in vivo
From the text: Example 16: Effect of Compound 7 in the Treatment of Bleomycin-Induced IPF Timed pregnant mice (n=30) were selected for the study. The delivered pups were subcutaneously injected on the post-natal day 2 (PND-2) with 1.5 U/kg of Bleomycin (intra-tracheal) and were allowed to remain with the mother until they reached the weanling age. After weanling, the male pups were selected and fed with 60% kcal fat diet (Research Diet-D12492) for the next week. All the animals were observed twice daily for clinical signs. Mice were orally dosed with vehicle, test compounds and reference compound (Pirfenidone) twice daily morning (9.00 AM) and evening before the start of dark cycle (6:00 PM) from day 0 to 14. Animal body weight measurements were made daily for the complete duration of the experiment. Animals were dosed for 14 days with the test and reference compounds. Lung hydroxyproline level was estimated before the treatment start and on the termination day 14. Total cell count and differential leukocyte count in BALF were measured before the treatment start and on […]. Histopathology analysis in the form of H&E Ashcroft score was performed for the lung tissues. All the H&E stained tissue sections were examined by light microscopy. As per the below grading system (Kleiner et al., 2005) in 200× objective lens, IPF scoring was carried out. Collagen Proportion Area (% CPA) Measurement: Masson's Trichrome Staining All the Masson's trichrome stained tissue sections were examined by light microscopy in 100× objective lens. Randomly selected five fields (approx 684.85 μm×917.11m per field) from each lung were subjected to collagen proportion area measurement by using Image Pro Premier 9.1 software. The percentage of collagen proportion area was calculated by dividing collagen tissue area by total tissue area.

[3] = 3 mg/kg dose, twice daily, 28 days, H&E NAFLD scoring

Row | Structure (SMILES) | Cell viability [1] [%] | IC50 (IL-1β) [nM] | also measured
1 | CCCOc1ccc(Nc2cc(S(=O)(=O)N(C)C)cnc2N2CCN(Cc3ccc(Cl)cc3)CC2)cc1 [Compound 4] | 100 | 300 | –
2 | Cc1ccc(Oc2cc(S(=O)(=O)N(C)C)cnc2N2CCC(Oc3ccc(C(N)=O)nc3)CC2)cc1 [Compound 10] | 100 | 410 | –
3 | CSc1ccc(C(=O)/C=C/c2cc(C)c(OC(C)(C)C(=O)O)c(C)c2)cc1 [Elafibranor, reference compound] | – | – | hepatomegaly and liver to body weight ratio [2]: hepatomegaly and increase in liver to body weight ratio
4 | CN(C)S(=O)(=O)c1cnc(N2CCC(Oc3ccc(Cl)cc3)CC2)c(Oc2ccc3c(c2)CCO3)c1 [Compound 5] | 100 | 28 | NAFLD activity score (NAS) ([2]; 3 mg/kg dose, twice daily, 28 days, FIG. 1): significant reduced NAS score than disease controls; hepatic ballooning [2, 3]: trend towards decreased; lobular inflammation in the liver [2, 3]: significantly reduced; steatosis in the liver [2, 3]: trend towards decreased; hepatomegaly and liver to body weight ratio [2]: did not show any hepatomegaly and increase in liver to body weight ratio; Serum AST levels ([2]; after 28 days of treatment, FIG. 2): significantly reduced
5 | CCOc1ccc(Oc2cc(S(C)(=O)=O)cnc2N2CCC(Oc3ccc(Cl)cc3)CC2)cc1 [Compound 11] | 100 | 753 | –
6 | CN(C)S(=O)(=O)c1cnc(N2CCC(Oc3ccc(Cl)cc3)CC2)c(-c2ccc3c(c2)CCO3)c1 [Compound 1] | 100 | 115 | –
7 | CN(C)S(=O)(=O)c1cnc(N2CCC(Oc3ccc(C(N)=O)nc3)CC2)c(Oc2ccc(OC(F)(F)F)cc2)c1 [Compound 9] | 100 | 531 | –
8 | CN(C)S(=O)(=O)c1cnc(N2CCC(Oc3ccc(Cl)cc3)CC2)c(Nc2ccc3c(c2)OCO3)c1 [Compound 3] | 100 | 121 | –
9 | CN(C)S(=O)(=O)c1cnc(N2CCC(Oc3ccc(C(N)=O)nc3)CC2)c(Oc2ccc3c(c2)CCO3)c1 [Compound 12] | 100 | 2300 | –
10 | Cc1ccc(=O)n(-c2ccccc2)c1 [Pirfenidone, reference compound] | – | – | BALF macrophage counts (Bleomycin-induced IPF; compared with Bleomycin control, Compound 7 p>0.05, Pirfenidone p<0.05, FIGS. 5A and 5B): reduced; % CPA (Collagen Proportion Area) (Bleomycin-induced IPF; lung, Masson's trichrome, in comparison with Bleomycin control, p<0.05, FIG. 6B): significant reduction; fibrosis score (H&E Ashcroft Score) (Bleomycin-induced IPF; lung, in comparison with Bleomycin control, p<0.05, FIG. 6A): significant reduction
11 | CN(C)S(=O)(=O)c1cnc(N2CCC(Oc3ccc(Cl)cc3)CC2)c(Nc2ccc3c(c2)CCO3)c1 [Compound 2] | 100 | 29 | –
12 | CN(C)S(=O)(=O)c1cnc(N2CCC(Oc3ccc(Cl)cc3)CC2)c(Nc2ccc3oc(CO)cc3c2)c1 [Compound 6] | 100 | 13 | –
13 | CCOc1ccc(Oc2cc(S(=O)(=O)N(C)C)cnc2N2CCC(Oc3ccc(C(N)=O)nc3)CC2)cc1 [Compound 8] | 100 | 337 | –
